From patent US9771327B2, “Compounds and methods for the treatment of cystic fibrosis” (FLATLEY DISCOVERY LAB, LLC, priority 2013, dated 2017)

Target: T1, human ΔF508-CFTR (Homo sapiens, UniProt P13569, DEL508-508)
T1 construct: expressed in transfected cells
Assay: CFTR-YFP high throughput assay, CFTR corrector protocol (YFP iodide flux quench)
Assay type: cell-based
Conditions: FRT cells expressing human ΔF508-CFTR and YFP-H148Q/I152L, 24-26 h incubation with compound
Experimental: Assays for Detecting and Measuring the Effect of Compounds on dF508-CFTR Channels CFRT-YFP High Throughput Assay-CFTR Corrector Protocol:
This protocol is designed to selectively screen small molecule compounds for F508del CFTR corrector activities in the HTS YFP flux assay. In this protocol, the cells are incubated with testing compounds for 24 hours, washed with PBS, stimulated with forskolin and a standard potentiator, and read on a 384-well HTS plate reader, such as the Hamamatsu FDDD-6000.
YFP fluorescence intensity is acquired at high speed before and after iodide buffer is injected to the assay cells. Iodide enters the cells via active CFTR channels in the plasma membrane, and quenches the YFP fluorescence. The rate of fluorescence quenching is proportionally related to the total CFTR activities in the cell membrane. dF508-CFTR corrector accelerates YFP quenching by increasing the number of CFTR molecules in the testing cell plasma membrane.
This method was initially developed for bench top plate readers (Galietta et al., 2001), and was adapted to the HTS format (Sui et al. Assay Drug Dev. Technol. 2010).
Fisher Rat Thyroid (FRT) cells stably expressing both human ΔF508-CFTR and a halide-sensitive yellow fluorescent protein (YFP-H148Q/I152L 25,22) (Galietta et al., Am. J. Physiol Cell Physiol, 281(5), C1734, 2001) were cultured on plastic surface in Coon's modified Ham's F12 medium supplemented with FBS 10%, L-glutamine 2 mM, penicillin 100 U/ml, and streptomycin 100 μg/ml. G418 (0.75-1.0 mg/ml) and zeocin (3.2 ug/ml) were used for selection of FRT cells expressing ΔF508-CFTR and YFP. For primary screening, FRT cells were plated into 384-well black wall, transparent bottom microtiter plates (Costar; Corning Inc.) at a cell density of 20,000-40,000 per well. Test compound was applied to the cells at varying concentrations ranging from 2 nM-[…] in either a 2-fold or 3-fold dilution series. Cells were incubated in a cell culture incubator at 37° C. with 5% CO2 for 24-26 h. Assay plates were washed with DPBS media (Thermo, cat #SH30028.02) to remove unbound cells and compound. Stimulation media (25 μL) containing 20 μM Forskolin & 30 μM P3 [6-(Ethyl-phenyl-sulfonyl)-4-oxo-1,4-dihydro-quinoline-3-carboxylic acid 2-methoxy-benzylamide] in Hams F-12 coon's modified media was added to the plate wells and incubated at room temperature for 60-120 min. 25 μL of HEPES-PBS -I buffer (10 mM HEPES, 1 mM MgCl2, 3 mM KCl, 1 mM CaCl2, 150 mM NaI) was then added and fluorescence quench curves (Excitation 500 nm/Emission 540 nm; exposure 136 ms) were immediately recorded on an FDSS-6000 plate reader (Hamamatsu). Quench rates were derived from least squares fitting of the data as described by Sui et al. (2010).

T1 sequence (P13569 with tags, fused parts or gaps DEL508-508): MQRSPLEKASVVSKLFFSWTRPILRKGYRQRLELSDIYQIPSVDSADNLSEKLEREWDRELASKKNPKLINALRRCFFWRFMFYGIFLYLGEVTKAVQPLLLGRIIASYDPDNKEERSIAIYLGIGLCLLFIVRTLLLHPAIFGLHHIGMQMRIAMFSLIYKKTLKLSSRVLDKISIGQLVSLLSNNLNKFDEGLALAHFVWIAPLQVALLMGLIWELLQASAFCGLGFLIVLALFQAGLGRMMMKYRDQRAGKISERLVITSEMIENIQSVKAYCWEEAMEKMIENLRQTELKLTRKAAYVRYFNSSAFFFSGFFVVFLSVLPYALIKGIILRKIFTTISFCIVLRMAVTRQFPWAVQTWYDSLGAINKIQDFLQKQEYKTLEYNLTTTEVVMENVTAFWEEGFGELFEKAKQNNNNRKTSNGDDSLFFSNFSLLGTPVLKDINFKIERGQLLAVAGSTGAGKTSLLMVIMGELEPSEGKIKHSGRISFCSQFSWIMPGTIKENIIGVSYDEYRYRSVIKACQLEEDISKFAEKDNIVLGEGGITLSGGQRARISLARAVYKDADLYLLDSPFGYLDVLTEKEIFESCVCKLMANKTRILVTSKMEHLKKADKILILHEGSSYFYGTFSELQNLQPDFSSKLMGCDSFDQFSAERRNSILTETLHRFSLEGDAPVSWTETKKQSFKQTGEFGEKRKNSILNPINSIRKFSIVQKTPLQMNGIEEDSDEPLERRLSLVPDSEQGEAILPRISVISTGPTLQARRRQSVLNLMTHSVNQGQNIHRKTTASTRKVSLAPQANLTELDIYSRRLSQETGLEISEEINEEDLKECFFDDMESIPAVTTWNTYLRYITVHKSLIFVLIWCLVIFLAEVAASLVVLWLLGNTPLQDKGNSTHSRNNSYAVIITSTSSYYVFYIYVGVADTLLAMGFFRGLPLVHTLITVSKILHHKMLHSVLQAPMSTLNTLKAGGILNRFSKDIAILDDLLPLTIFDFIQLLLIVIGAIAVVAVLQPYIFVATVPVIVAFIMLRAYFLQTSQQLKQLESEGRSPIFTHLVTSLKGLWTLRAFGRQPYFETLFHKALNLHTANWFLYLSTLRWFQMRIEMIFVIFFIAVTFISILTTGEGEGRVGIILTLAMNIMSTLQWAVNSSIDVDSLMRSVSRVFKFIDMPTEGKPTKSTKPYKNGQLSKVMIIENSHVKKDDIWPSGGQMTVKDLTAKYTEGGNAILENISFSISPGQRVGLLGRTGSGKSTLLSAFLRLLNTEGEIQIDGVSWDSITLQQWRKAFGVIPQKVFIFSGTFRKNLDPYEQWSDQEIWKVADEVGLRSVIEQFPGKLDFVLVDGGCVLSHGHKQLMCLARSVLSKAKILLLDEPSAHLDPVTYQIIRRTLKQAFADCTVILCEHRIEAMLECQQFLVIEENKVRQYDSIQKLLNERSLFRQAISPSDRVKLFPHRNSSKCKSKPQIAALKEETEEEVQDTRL

Emax (normalized to the positive control, read-out: EMAX (% Efficacy, EMAX normalized to the positive control)): 30 to 80%
EC50 (stimulated with 20 μM Forskolin & 30 μM P3): < 10 µM
SMILES: COc1ccc(S(=O)(=O)N2CCC(n3c(-c4ccccc4Cl)nc4ccc(C)nc43)CC2)cc1F [Example 8, 2-(2-Chlorophenyl)-3-(1-((3-fluoro-4-methyoxyphenyl)sulfonyl)piperidin-4-yl)-5-methyl-3H-imidazo[4,5-b]pyridine]
